Legend:
Format in all cases: biochemical
[1] = target: Human liver Cathepsin L (Homo sapiens (Human), UniProt P07711); experiment: Cathepsin L inhibition, fluorometric Z-F-R-AMC assay; details: 1 nM cathepsin L, 50 μM Z-F-R-AMC, pH 5.5, 5 min preincubation, 25° C.
Procedure: Human liver Cathepsin L (Sigma) was preincubated with test compounds at various concentrations for 5 minutes at 25° C. The assay was initiated by addition of substrate Z-Phe-Arg-aminomethylcoumarin (“Z-F-R-AMC” Bacchem) and the final assay conditions were 1 nM cathepsin L, 50 μM Z-F-R-AMC, 100 mM sodium acetate pH 5.5, 1 mM EDTA (Omnipure), 3 mM DTT (EMD), 0.01% BRIJ 35 (Sigma), and 2.0% DMSO (Acros). Test compounds were serially diluted with DMSO and water to include a final concentration range of 10 μM to 10 pM. The reaction was monitored fluorometrically for 5 minutes at 25° C. using black 96-well Corning 3686 assay microplates with a Thermo Fluoroskan Ascent FL microplate reader at excitation and emission filter wavelengths of 355 nm and 460 nm, respectively. Data were analyzed to determine IC50 values utilizing GraphPad Prism 4.03 software with a minimum of a triplicate on the same microplate.

[2] = target: Human liver Cathepsin B (Homo sapiens (Human), UniProt P07858); experiment: Cathepsin B inhibition, fluorometric Z-R-R-AMC assay; details: 1.1 nM cathepsin B, 60 μM Z-R-R-AMC, pH 6.0, 5 min preincubation, 37° C.
Procedure: Human liver Cathepsin B (Calbiochem) was pre-incubated with test compound at various concentrations for 5 minutes at 37° C. The assay was initiated by addition of substrate Z-Arg-Arg-aminomethylcoumarin (“Z-R-R-AMC” Bacchem) and the final assay conditions were 1.1 nM cathepsin B, 60 μM Z-R-R-AMC, 126 mM sodium potassium phosphate pH 6.0 (Fisher), 0.3 mM EDTA (Omnipure), 2.7 mM DTT (Omnipure), 0.004% BRIJ 35 (Sigma), and 2.0% DMSO (Acros) in a final volume of 200 μL. Test compounds were serially diluted with DMSO and 0.01% BRIJ 35 to include a final concentration range of 20 μM to 10 pM. The reaction was monitored fluorometrically for 5 minutes at 37° C. using black 96-well Corning 3686 assay microplates with a Thermo Fluoroskan Ascent FL microplate reader at excitation and emission filter wavelengths of 355 nm and 460 nm, respectively. Data were analyzed to determine IC50 values utilizing GraphPad Prism 4.03 software with a minimum of a triplicate on the same microplate.

[3] = target: Cathepsin K (activated recombinant human procathepsin K) (Homo sapiens (Human), UniProt P43235); experiment: Cathepsin K inhibition, fluorometric Z-F-R-AMC assay; details: 1.5 nM cathepsin K, 50 μM Z-F-R-AMC, pH 5.5, 5 min preincubation, 25° C.
Chain of Cathepsin K (activated recombinant human procathepsin K) (P43235 115-329): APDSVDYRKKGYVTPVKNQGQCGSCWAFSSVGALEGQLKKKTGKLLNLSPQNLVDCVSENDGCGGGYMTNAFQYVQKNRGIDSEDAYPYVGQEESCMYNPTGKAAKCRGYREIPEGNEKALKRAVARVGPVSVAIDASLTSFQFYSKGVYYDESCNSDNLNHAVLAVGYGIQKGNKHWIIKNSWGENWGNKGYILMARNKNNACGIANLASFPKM
Procedure: Recombinant human procathepsin K was obtained from Enzo Life Sciences. Activation of the proenzyme was performed in 32.5 mM sodium acetate pH 3.5, EDTA 1 mM, NaCl 500 mM, human procathepsin K 5.5 μM, at room temperature. Activation times were optimized and varied between 35 and 150 minutes. Cathepsin K was preincubated with test compounds at various concentrations for 5 minutes at 25° C. The assay was initiated by addition of substrate Z-Phe-Arg-aminomethylcoumarin (“Z-F-R-AMC” Bacchem) and the final assay conditions were 1.5 nM cathepsin K, 50 μM Z-F-R-AMC, 150 mM sodium acetate pH 5.5, 2.5 mM EDTA (Omnipure), 2.5 mM DTT (EMD), 0.01% BRIJ 35 (Sigma), and 4.0% DMSO (Acros). Test compounds were serially diluted with DMSO and water to include a final concentration range of 10 μM to 10 pM. The reaction was monitored fluorometrically for 5 minutes at 25° C. using black 96-well Corning 3686 assay microplates with a Thermo Fluoroskan Ascent FL microplate reader at excitation and emission filter wavelengths of 355 nm and 460 nm, respectively. Data were analyzed to determine IC50 values utilizing GraphPad Prism 4.03 software with a minimum of a triplicate on the same microplate.

Chain of Human liver Cathepsin L (P07711 114-333): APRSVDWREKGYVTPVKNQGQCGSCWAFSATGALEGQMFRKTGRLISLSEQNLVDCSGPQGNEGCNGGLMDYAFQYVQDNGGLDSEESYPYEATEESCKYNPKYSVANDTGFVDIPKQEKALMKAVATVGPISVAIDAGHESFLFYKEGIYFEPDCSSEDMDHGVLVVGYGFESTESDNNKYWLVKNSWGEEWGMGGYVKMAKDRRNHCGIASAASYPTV

Row | IC50 [1] [µM] | IC50 [2] [µM] | IC50 [3] [µM] | Compound
1 | > 10 | > 10 | > 10 | NC(=S)NN=C(c1ccc(Br)cc1)c1cccc(C(=O)c2ccc(Br)cc2)c1 [Compound 24, 1,3-bis-(4-bromobenzoyl)benzene thiosemicarbazone]
2 | 0.587 | > 10 | 2.1 | COc1ccc(C(=NNC(N)=S)c2cccc(C(=NNC(N)=S)c3ccc(OC)cc3)c2)cc1 [Compound 33, 1,3-bis-(4-methoxybenzoyl)benzene dithiosemicarbazone]
3 | > 10 | > 10 | – | CC(C)Oc1ccc(C(=O)c2cccc(C(=NNC(N)=S)c3ccc(OC(C)C)cc3)c2)cc1 [Compound 22, 1,3-bis-(4-isopropoxybenzoyl)benzene thiosemicarbazone]
4 | 0.0105 | > 10 | 0.0174 | NC(=S)NN=C(c1ccccc1)c1cccc(C(=O)c2ccccc2)c1 [Compound 3, 3-benzoyl benzophenone thiosemicarbazone]
5 | 0.0243 | > 10 | 8.5 | NC(=S)NN=C(c1ccc(F)cc1)c1cccc(C(=O)c2ccc(F)cc2)c1 [Compound 13, 1,3-bis-(4-fluorobenzoyl)benzene thiosemicarbazone]
6 | > 10 | – | > 10 | CC(C)Oc1ccc(C(=NNC(N)=S)c2cccc(C(=NNC(N)=S)c3ccc(OC(C)C)cc3)c2)cc1 [Compound 23, 1,3-bis-(4-isopropoxybenzoyl)benzene dithiosemicarbazone]

Further lines, the molecule ahead of its results:

Row | Compound | IC50 [1] [µM] | IC50 [2] [µM] | IC50 [3] [µM]
7 | NC(=S)NN=C(c1ccccc1)c1cccc(C(O)c2ccccc2)c1 (stereo not drawn) [Compound 6, 3-Benzoyl benzhydrol thiosemicarbazone] | 0.0238 | > 10 | –
8 | Cc1cccc(C(=O)c2cccc(C(=NNC(N)=S)c3cccc(C)c3)c2)c1 [Compound 9, 1-(3-methylbenzoyl),3-(3-methylbenzoyl)benzene thiosemicarbazone] | 7.82 | – | 1.03
9 | NC(=S)NN=C(c1ccccc1)c1cc(C(=O)c2ccccc2)cc(C(=O)c2ccccc2)c1 [Compound 25, 1,3,5-Tribenzoyl benzene thiosemicarbazone] | 0.025 | – | 2.8
10 | NC(=S)NN=C(c1cc(Br)cc(C(=O)c2ccccc2F)c1)c1ccccc1F [Compound 11, 1,3-bis(2-fluoro-benzoyl)-5-bromobenzene thiosemicarbazone] | 0.00812 | > 10 | –
